Results as given in patent US20260335468A1, “MOLECULAR RADIOAFTERGLOW PROBES FOR CANCER RADIODYNAMIC THERANOSTICS” (NANYANG TECHNOLOGICAL UNIVERSITY, priority 2023, published 2026).

Experiments:
[1] = Heat generation study; type: physicochemical; settings: 100 μM, X-ray 5 mGy
Method: IDPASu (100 μM, 100 μL) solution and PBS in a round cap with the diameter of 1 cm were prepared and then irradiated by X-ray at dose of 5 mGy (250 μGy·s^−1 for 20 s), respectively. The temperatures of the IDPASu solution and PBS were recorded by FUR Infrared Camera (FLIR A35-Series, FUR Systems).

[2] = In vivo limit of detection of subcutaneously injected IDPASu (radio afterglow); parameters: species or system mouse (BALB/c nude); settings: subcutaneous injection, X-ray 5 mGy, LOD=3σ/k
Method: To test the LOD of IDPASu for in vivo RAI, 20 μl of the mixture solution of IDPASu at different concentrations (100.0, 50.0, 20.0, 10.0, 5.0, 1.0, 0.5 and 0 μM) and solubilizing agent (2-carboxyethyl)-o-cyclodextrin sodium salt (β-CD) at 100 μM was subcutaneously injected into the left flank of BALB/c nude mice (six weeks old). After 30 min, the left flank of mice were irradiated with X-rays at 5 mGy (250 μGy s^−1 for 20 s) as the other areas were protected by a 3.4-mm-thick lead shield with a notch under the X-ray irradiation. Radio afterglow signals were recorded. The detection limit was calculated using this equation: LOD=3σ/k, where a represents the s.d. of blank and k implies the slope of the radio afterglow intensities.

[3] = ^1O2 generation at tissue depth (X-ray or light through chicken breast tissue); type: physicochemical
Method: To study ^1O2 generation, a mixture of DPAS or IDPAS (100 M) and TEMP (10 mM) in PBS (0.01 M, pH 7.4, 50% DMSO) was irradiated by X-rays at 2 Gy (100 mGy s^−1 for 20 s) or 5 mGy (250 μGy s^−1 for 20 s). The ESR signals of the mixture were recorded with a Bruker A300 instrument. The ESR signal of the free radical 2,2,6,6-tetramethyl-1-piperidinyloxyl (g=2.0060) was generated by the reaction of ^1O2 with TEMP. The ^1O2 quencher NaN3 (1 mM) was added to validate the afterglow mechanism of IDPASu. Additionally, other commercially available radio sensitizers (such as acridine orange, hematoporphyrin and verteporfin) were measured and compared. The procedure of block depths was similar to that of the tissue penetration depth study and the ^1O2 generation for different depth tissues was measured. The ESR signal changes of MRAP in the absence or presence of CatB were measured in a similar way. The ESR signals of 2,2,6,6-tetramethyl-1-piperidinyloxyl from the reaction of ^1O2 with TEMP were plotted as a function of the concentration of ^1O2, which was generated by the addition of NaOCl to H2O2. This generated the standard curve between the ESR intensity and ^1O2 concentration.
The deep-tissue radiodynamic process of IDPASu was tested by measuring ^1O2 generation at different tissue depths and compared with photosensitization (FIG. 11c).

[4] = X-ray-induced NIR afterglow properties (Table 3); settings: X-ray 0.005 Gy
Source text: To enable radio afterglow for organic molecules, we proposed a radiodynamic approach based on organic luminophores (DPAs and IDPAs) that were able to harvest X-ray energy for an in situ cycloaddition reaction to form self-luminescent chemical defects (FIG. 4b). This is mechanistically different from inorganic nanophosphors wherein the host materials (for example, fluoride and aluminosilicate) absorb X-rays, lattice defects delay excitons, and rare-earth/transition metal ion dopants (for example, Nd^3+ and Eu^3+) emit light (Richard, C. & Viana, B., Light.: Sci. Appl. 2022, 11, 123). Because of the presence of heavy atoms (iodine), IDPAs had higher radiodynamic ^1O2 generation and stronger radio afterglow emission than the iodine-free counterpart (DPAs). The radio afterglow dynamic processes of IDPAs were inducible even at a tissue depth of 15 cm, which was impossible when using light.

[5] = HPLC analysis of IDPASu after X-ray irradiation; type: physicochemical
Method: HPLC purification and analyses were performed with an Agilent 1260 system using methanol/H2O or acetonitrile/H2O as an eluent. X-ray irradiation was conducted with MOXTEK MAGPRO (Moxtek, Inc. 452 West 1260 North Orem, UT 84057) and the dose was calibrated by RAYSAFE R/F X2 X (FLUKE, USA). White-light irradiation was used by a xenon lamp PLS-SEX300D (Beijing Perfectlight Technology Co., Ltd.).
To study the radio afterglow mechanism, the sample of IDPASu after X-ray irradiation was analysed with HPLC and high-resolution mass spectrometry.

[6] = X-ray 2 Gy, 100 mGy s^−1 for 20 s

COC(=C1C2CC3CC(C2)CC1C3)c1cc(O)c(I)cc1/C=C/C1=CC(=C(C#N)C#N)c2ccccc2S1 [IDPASu]
heat generation upon radiation [1]: did not cause any heat generation
limit of detection (LOD), in vivo imaging [2]: 49 nM
decrease of ^1O2 concentration at tissue depth of 1 cm, X-ray ([3]; X-ray through 1 cm tissue): ~ 30%
radiodynamic ^1O2 generation at tissue depth of 15 cm ([3]; X-ray through 15 cm tissue): still inducible
^1O2 generation at tissue depth of 1 cm, light irradiation ([3]; light through 1 cm tissue): close to the background
afterglow half-life [4]: 18.4 min
afterglow life-time [4]: 25 h
λem [4]: ~773 nm
conversion yield to activated IDPASu (peak at 6.0 min) [5, 6]: 7.6%
conversion yield to dioxetane compound (peak at 14.8 min) [5, 6]: 3.3%
luminophore consumed by one cycle of irradiation ([5]; one cycle at 250 μGy s^−1 for 20 s, HPLC): ~ 3%
